The species named for series [1] is Homo sapiens. Nature of the series: Selectivity ratio of IC50 for PI3Kbeta (unknown origin) using PIP2:3PS peptide as substrate preincubated for 15 mins followed by ATP addition at Km concentration and further incubated for 120 mins by ADP-Glo assay to IC50 for PI3Kalpha (unknown origin) using PIP2:3PS peptide as substrate preincubated for 15 mins followed by ATP addition at Km concentration and further incubated for 150 mins by ADP-Glo assay.

The species entered for series [2] is Homo sapiens. Description: Selectivity ratio of IC50 for PI3Kdelta (unknown origin) using PIP2:3PS peptide as substrate preincubated for 15 mins followed by ATP addition at Km concentration and further incubated for 120 mins by ADP-Glo assay to IC50 for PI3Kalpha (unknown origin) using PIP2:3PS peptide as substrate preincubated for 15 mins followed by ATP addition at Km concentration and further incubated for 150 mins by ADP-Glo assay. Background: ADP-Glo first removes unused ATP, then detects ADP through luciferase.

Series [3] is filed under the species Homo sapiens. Nature of the series: Selectivity ratio of IC50 for PI3Kgamma (unknown origin) using PIP2:3PS peptide as substrate preincubated for 15 mins followed by ATP addition at Km concentration and further incubated for 120 mins by ADP-Glo assay to IC50 for PI3Kalpha (unknown origin) using PIP2:3PS peptide as substrate preincubated for 15 mins followed by ATP addition at Km concentration and further incubated for 150 mins by ADP-Glo assay.

Series [4] is described as follows: Inhibition of PI3K in human MCF7 cells assessed as reduction in AKT phosphorylation at residue S473 incubated for 2 hrs followed by insulin addition by ELISA. The note with it: MCF7, 2 h. It is filed as cell-based. On the technique in general: ELISA stands for enzyme-linked immunosorbent assay.
The target in series [5] is Phosphatidylinositol 4,5-bisphosphate 3-kinase catalytic subunit alpha isoform (Homo sapiens, UniProt P42336). Description: Inhibition of PI3Kalpha (unknown origin) using PIP2:3PS peptide as substrate preincubated for 15 mins followed by ATP addition at Km concentration and further incubated for 150 mins by ADP-Glo assay.
Series [6] in a line: Cmax in BALB/c mouse at 10 mg/kg, po by HPLC analysis. Format: ADME, organism-based. Set-up: dose 10 mg/kg, route oral. The note with it: in vivo.
Series [7] can be described thus: Dose normalized AUC (0 to last) in BALB/c mouse at 10 mg/kg, po by HPLC analysis. It is filed as ADME, organism-based. The note with it: in vivo.

Structures are written as SMILES. pIC50: −log10 of the molar value. Some results are limits rather than exact numbers.

Chain of Phosphatidylinositol 4,5-bisphosphate 3-kinase catalytic subunit alpha isoform (P42336 whole entry, canonical isoform): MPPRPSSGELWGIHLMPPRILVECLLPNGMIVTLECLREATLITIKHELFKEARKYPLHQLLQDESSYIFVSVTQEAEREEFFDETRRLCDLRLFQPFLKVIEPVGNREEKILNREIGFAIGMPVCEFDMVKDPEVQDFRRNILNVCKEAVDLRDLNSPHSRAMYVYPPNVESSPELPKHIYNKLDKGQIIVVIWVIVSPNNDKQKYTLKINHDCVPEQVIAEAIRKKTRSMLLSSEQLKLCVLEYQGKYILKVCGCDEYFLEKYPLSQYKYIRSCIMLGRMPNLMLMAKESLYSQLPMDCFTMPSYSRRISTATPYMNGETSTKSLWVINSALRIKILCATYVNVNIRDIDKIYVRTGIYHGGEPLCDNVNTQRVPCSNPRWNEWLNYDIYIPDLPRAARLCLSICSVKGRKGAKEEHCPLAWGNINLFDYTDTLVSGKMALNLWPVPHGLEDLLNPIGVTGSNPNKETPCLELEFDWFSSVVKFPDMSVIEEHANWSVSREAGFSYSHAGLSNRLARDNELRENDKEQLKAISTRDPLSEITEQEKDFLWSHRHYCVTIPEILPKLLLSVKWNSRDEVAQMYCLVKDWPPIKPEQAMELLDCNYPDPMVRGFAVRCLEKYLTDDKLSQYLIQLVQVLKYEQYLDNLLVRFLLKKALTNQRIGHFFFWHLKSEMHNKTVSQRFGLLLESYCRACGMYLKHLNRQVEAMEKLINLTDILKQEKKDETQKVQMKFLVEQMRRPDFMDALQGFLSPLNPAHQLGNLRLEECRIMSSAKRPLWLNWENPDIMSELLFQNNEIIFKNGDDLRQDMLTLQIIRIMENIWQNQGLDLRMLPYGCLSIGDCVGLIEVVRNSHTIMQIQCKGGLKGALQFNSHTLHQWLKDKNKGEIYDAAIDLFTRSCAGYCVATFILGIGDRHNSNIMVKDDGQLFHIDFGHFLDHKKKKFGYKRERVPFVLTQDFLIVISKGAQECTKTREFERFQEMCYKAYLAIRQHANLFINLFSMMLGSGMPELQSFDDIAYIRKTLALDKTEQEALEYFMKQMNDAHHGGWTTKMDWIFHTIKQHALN

In the case of `CNC(=O)[C@H](C)Cn1cnc2ccc(-c3cnc(C)c(NS(=O)(=O)c4ccc(F)cc4Cl)c3)cc2c1=O`, the figures for the Ratio IC50 in series [1], in series [2] and in series [3] were 406, 17 and 21, respectively. Further, the pIC50 – broadly, −log10 of the IC50, conventionally taken in molar units – in series [4] was 6.40; in series [5] it was 8.52.

Regarding `CNC(=O)[C@H](C)Cn1cnc2ccc(-c3cnc(CO)c(NS(=O)(=O)c4ccc(F)cc4Cl)c3)cc2c1=O`, the Ratio IC50 was above 334 in series [1], 17.9 in series [2] and 12.5 in series [3]. Moreover, the negative-log IC50 (pIC50) was below 6.00 in series [4] and 7.52 in series [5].

For `COc1ncc(-c2ccc3ncn(C[C@@H](C)C(=O)NC4CCC4)c(=O)c3c2)cc1NS(=O)(=O)c1ccc(F)cc1Cl`, the figures for the Ratio IC50 in series [1], in series [2] and in series [3] were 186, 2.12 and 3.27, respectively. For the same compound, the concentration in series [6] peaked (Cmax) at 4.73 µM. The compound further gave an AUClast/dose in series [7] of 302 nM·h. Besides, the pIC50 in series [4] is 7.09; in series [5], 8.08.

On to `COc1ncc(-c2ccc3ncn(C[C@@H](C)C(=O)NCC(F)(F)F)c(=O)c3c2)cc1NS(=O)(=O)c1ccc(F)cc1Cl`, for which the Ratio IC50 in series [1] was 107; in series [2], 3.41; in series [3], 9.87. The negative logarithm of the IC50 (pIC50) was 7.25 in series [4] and 8.26 in series [5].

In the case of `CNC(=O)[C@H](C)Cn1cnc2ccc(-c3cnc(OC)c(NS(=O)(=O)c4ccc(F)cc4)c3)cc2c1=O`, the Ratio IC50 in series [1] was 106; in series [2], 9.16; in series [3], 12.3. For the same compound, in series [6], the peak level (Cmax) was 5 µM. In addition, in series [7], the AUClast/dose is 1370 nM·h. Moreover, the values for the pIC50 in series [4] and in series [5] were 7.72 and 8.47, respectively.

In the case of `COCCNC(=O)[C@H](C)Cn1cnc2ccc(-c3cnc(OC)c(NS(=O)(=O)c4ccc(F)cc4Cl)c3)cc2c1=O`, the figures for the Ratio IC50 in series [1], in series [2] and in series [3] were 229, 6.06 and 9.22, respectively. Further, the Cmax (in general, the peak of the concentration-time curve) in series [6] was 9.13 µM. Further, the AUClast/dose in series [7] is reported as 723 nM.hr/(mg/kg). The pIC50 in series [4] was 7.14; in series [5], 8.31.

Take `COc1ncc(-c2ccc3ncn(CCC(N)=O)c(=O)c3c2)cc1NS(=O)(=O)c1ccc(F)cc1Cl`: the Ratio IC50 in series [1] is 59; in series [2], 3.34; in series [3], 3.94. For the same compound, the pIC50 in series [4] is 7.77; in series [5], 8.92.

In the case of `COc1ncc(-c2ccc3ncn(C[C@@H](C)C(=O)NCC(C)C)c(=O)c3c2)cc1NS(=O)(=O)c1ccc(F)cc1Cl`, the Ratio IC50 amounted to 424 in series [1], 3.03 in series [2] and 6.38 in series [3]. For the same compound, the pIC50 is 7.09 in series [4] and 8.10 in series [5].

Regarding `COc1ncc(-c2ccc3ncn(C[C@@H](C)C(=O)NCCO)c(=O)c3c2)cc1NS(=O)(=O)c1ccc(F)cc1Cl`, the Ratio IC50 was 151 in series [1], 6.8 in series [2] and 6.34 in series [3]. The pIC50 in series [4] was 6.47; in series [5] it was 8.77.

With `COc1ncc(-c2ccc3ncc(NC(=O)N4CCC[C@H]4C(N)=O)c(=O)n3c2)cc1NS(=O)(=O)c1ccc(F)cc1Cl`, the Ratio IC50 in series [1] came to 130; in series [2] it was 3.4; in series [3], 7.4. Also, the figures for the pIC50 in series [4] and in series [5] were 6.73 and 9.30, respectively.

With `COc1ncc(-c2ccc3ncn(C[C@@H](C)C(=O)NC(C)C)c(=O)c3c2)cc1NS(=O)(=O)c1ccc(F)cc1Cl`, the figures for the Ratio IC50 in series [1], in series [2] and in series [3] were 107, 3.41 and 9.87, respectively. The pIC50 in series [4] was 7.21; in series [5] it was 8.16.

These data come from ChEMBL document CHEMBL4619796, “Discovery of 3-Quinazolin-4(3H)-on-3-yl-2,N-dimethylpropanamides as Orally Active and Selective PI3Kα Inhibitors” (ACS Med Chem Lett, 2020).
